From PubChem BioAssay (NCI)
Where “and” joins values, the source holds several entries; their conditions need not be identical. Equal values may be shown once.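 Where inhibition never reached the appropriate level, the endpoint shown equals the highest concentration tested. Otherwise, values were interpolated linearly from a five-concentration, 48-hour dose response in 96-well plates. GI50 is the concentration that inhibits growth by half. The concentration for full growth arrest is given as TGI.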 Where a SMILES comes first, the peptide text is derived from it. [ ]: non-standard residue; d: D form. Phe(4-Cl) = N[CH](Cc1ccc(Cl)cc1)C(=O)O

How the values were obtained:
Assay in all cases: inhibition of tumour cell growth, NCI panel, 48 h
KM12 colon = test system: KM12 colon
UACC-257 melanoma = test system: UACC-257 melanoma
RXF 393 renal = test system: RXF 393 renal
SK-MEL-28 melanoma = test system: SK-MEL-28 melanoma
CAKI-1 renal = test system: CAKI-1 renal
MALME-3M melanoma = test system: MALME-3M melanoma
SNB-19 CNS = test system: SNB-19 CNS
SN12C renal = test system: SN12C renal
MCF7 breast = test system: MCF7 breast
MDA-MB-231 breast = test system: MDA-MB-231 breast

Structure (SMILES) | GI50 (KM12 colon) | TGI (KM12 colon) [µM] | GI50 (UACC-257 melanoma) | TGI (UACC-257 melanoma) [µM] | GI50 (RXF 393 renal) | TGI (RXF 393 renal) | GI50 (SK-MEL-28 melanoma) | TGI (SK-MEL-28 melanoma) [µM] | GI50 (CAKI-1 renal) | TGI (CAKI-1 renal) | GI50 (MALME-3M melanoma) [µM] | TGI (MALME-3M melanoma) [µM] | GI50 (SNB-19 CNS) | TGI (SNB-19 CNS) | GI50 (SN12C renal) | TGI (SN12C renal) | TGI (MCF7 breast) [µM] | TGI (MDA-MB-231 breast) [µM]
N.N.N.N.N.O=C([O-])c1nn[n-]n1.[Cl-].[Co+3] | > 100 µM | > 100 | > 100 µM | > 100 | > 100 µM | > 100 µM | > 100 µM | > 100 | > 100 µM | > 100 µM | > 100 | > 100 | > 100 µM | > 100 µM | > 100 µM | > 100 µM |  | 
CC(C)(C)OC(=O)Cc1ccc2c(ccn2Cc2ccccc2)c1 |  | > 100 |  | > 100 |  | > 100 µM |  | > 100 |  | > 100 µM |  | > 100 |  | > 100 µM |  | > 100 µM |  | 
COC(=O)C1=NC(=S)NC(c2ccccc2)C1c1nc2ccccc2s1 (stereo unspecified) |  | > 100 |  | > 100 |  | > 100 µM |  | > 100 |  | > 100 µM |  | > 100 |  | > 100 µM |  | > 100 µM |  | 
COc1ccc(-c2cn3ccsc3n2)cc1 |  | > 100 |  | > 100 |  |  |  | > 100 |  | > 100 µM |  | > 100 |  | > 100 µM |  | > 100 µM |  | 
Cc1ccc(N(C(=O)CC(=O)NN)C(=O)c2ccccc2Cl)cc1 |  | > 100 |  | > 100 |  | > 100 µM |  | > 100 |  | > 100 µM |  | > 100 |  | > 100 µM |  | > 100 µM |  | 
CC(C)=CCC/C(=C/CC/C(C)=C/CCc1ccoc1)C(=O)O |  | > 100 |  | > 100 |  | > 100 µM |  | > 100 |  |  |  | > 100 |  | > 100 µM |  | > 100 µM |  | 
Cc1noc(C)c1CCCOC1COc2ccccc2OCCOCCOc2ccccc2OC1 |  | > 100 |  | > 100 |  | > 100 µM |  | > 100 |  | > 100 µM |  | > 100 |  | > 100 µM |  | > 100 µM |  | 
COC(=O)c1cc(Br)c(Br)n1C |  | > 100 |  | > 100 |  | > 100 µM |  | > 100 |  | > 100 µM |  | > 100 |  | > 100 µM |  | > 100 µM |  | 
CC(=O)[CH-]C(=O)c1ccccc1.CC(=O)[CH-]C(=O)c1ccccc1.O=C([O-])c1ccc([O-])cc1.O=C([O-])c1ccc([O-])cc1.[Ti+4] | 25 µM | 90.1 |  |  | 15.3 µM | 56.4 µM | 41.6 µM | > 100 | 35.6 µM | > 100 µM | 23.6 | 66.8 | 52.3 µM | > 100 µM | 51.3 µM | > 100 µM |  | 
CN(C)P(=O)(/C(N)=N/Nc1ccc([N+](=O)[O-])cc1)N(C)C |  | > 100 |  | > 100 |  |  |  | > 100 |  | > 100 µM |  | > 100 |  | > 100 µM |  | > 100 µM |  | 
CCOC(=O)CN=c1nc(SC)sc2c(C(=O)OCC)nc(Sc3ccccc3)n12 |  | > 100 |  | > 100 |  |  |  |  |  | > 100 µM |  | > 100 |  |  |  | > 100 µM |  | 
CCOC1=NC(=O)CC(c2ccccc2)S1 (stereo unspecified) |  | > 100 |  | > 100 |  | > 100 µM |  |  |  | > 100 µM |  | > 100 |  | > 100 µM |  | > 100 µM |  | 
O=C(O)CP(=S)(S)c1ccccc1 (stereo unspecified) |  | > 100 |  | > 100 |  | > 100 µM |  | > 100 |  | > 100 µM |  | > 100 |  | > 100 µM |  | > 100 µM |  | 
Cc1ccc(S(=O)(=O)n2c(-c3ccccc3)c(-c3ccccc3)c3ccccc32)cc1 |  | > 100 |  | > 100 |  | > 100 µM |  | > 100 |  |  |  | > 100 |  | > 100 µM |  | > 100 µM |  | 
Cc1cccc(NC(=O)C(=O)Cc2nc3ccccc3[nH]c2=O)c1C |  | > 100 |  | > 100 |  | > 100 µM |  | > 100 |  | > 100 µM |  | > 100 |  | > 100 µM |  | > 100 µM |  | 
O=C1c2ccccc2-c2c1c1ccccc1c(=O)n2Cc1ccccc1 |  | > 100 |  | > 100 |  |  |  | > 100 |  | > 100 µM |  | > 100 |  |  |  | > 100 µM | > 100 | > 100
Cc1ccc(Nc2nc3c(s2)C(=O)c2ccccc2C3=O)c(C)c1 |  | 33 |  | 22.8 |  | 29.6 µM |  | 31.1 |  | 29 µM |  | 26.9 |  | 27.7 µM |  | 31.1 µM |  | 

Structure (SMILES) | GI50 (KM12 colon) | TGI (KM12 colon) [µM] | GI50 (UACC-257 melanoma) | TGI (UACC-257 melanoma) [µM] | GI50 (RXF 393 renal) | TGI (RXF 393 renal) | GI50 (SK-MEL-28 melanoma) | TGI (SK-MEL-28 melanoma) [µM] | GI50 (CAKI-1 renal) | TGI (CAKI-1 renal) | GI50 (MALME-3M melanoma) [µM] | TGI (MALME-3M melanoma) [µM] | GI50 (SNB-19 CNS) | TGI (SNB-19 CNS) | GI50 (SN12C renal) | TGI (SN12C renal) | TGI (MCF7 breast) [µM] | TGI (MDA-MB-231 breast) [µM]
Nc1ccc(/C=C/c2ccnc3ccccc23)cc1 |  | 49.3 |  | 57.8 |  |  |  | > 100 |  | 63.9 µM |  | 97.3 |  | 79.3 µM |  |  |  | 
COC(=O)c1cccc2cccc(C(=O)Nc3ccc(C)cc3C)c12 |  | > 100 |  | > 100 |  | > 100 µM |  | > 100 |  | > 100 µM |  | > 100 |  | > 100 µM |  | > 100 µM |  | 
C[N+](C)(C)CC1CCCC(C[N+](C)(C)C)C1=O (stereo unspecified) |  | 12.5 |  | 1.48 |  | 3.18 µM |  | 3.75 |  | 1.48 µM |  | 0.487 |  | 38 µM |  | 1.5 µM |  | 3.58
Cn1cc(C(=O)c2ccccc2)ccc1=O |  | > 100 |  | > 100 |  | > 100 µM |  | > 100 |  | > 100 µM |  | > 100 |  | > 100 µM |  | > 100 µM |  | 
COc1cc(OC(=O)c2c(O)cc(O)c(O)c2C)cc(C)c1C(=O)Oc1cc(C)c(C(=O)O)c(O)c1 |  | > 100 |  | > 100 |  | > 100 µM |  | > 100 |  | > 100 µM |  | > 100 |  |  |  | > 100 µM |  | 
CC1=C2C(=O)O[C@@H](c3ccoc3)[C@]2(C)CCC1 |  | > 100 |  | > 100 |  |  |  | > 100 |  | > 100 µM |  | > 100 |  | > 100 µM |  |  |  | 
CC(=O)OC[C@]12CC[C@H]3[C@@H](C[C@H]4O[C@]45[C@@H](O)C=CC(=O)[C@]35C)[C@@H]1CC[C@@H]2[C@H](C)[C@H]1CC(C)=C(C)C(=O)O1 | 0.467 µM and 0.349 µM | 1.11 | 0.638 µM and 0.801 µM | 2.69 | 0.247 µM and 0.388 µM | 0.791 µM and 1.13 µM | 0.526 µM and 0.381 µM | 1.09 | 0.385 µM and 0.266 µM | 0.831 µM and 1.08 µM | 1.11 | 2.4 | 0.7 µM and 1.16 µM | 0.899 µM and 2.52 µM | 0.401 µM and 0.322 µM | 0.943 µM and 1.16 µM |  | 
Cc1ccc2nc3c(C(=O)NCCN(C)C)cccc3nc2c1 |  | 20.2 |  | 14.1 |  | 15.5 µM |  | 10.9 |  | > 31.6 µM |  | 8.37 |  | 46.3 µM |  | 27.9 µM |  | 
Cc1ccccc1N(CCC#N)C1=NN(C(=O)CC(=O)Nc2ccccc2)C(c2ccccc2)C1 (stereo unspecified) |  | > 100 |  | > 100 |  | > 100 µM |  | > 100 |  |  |  | > 100 |  | > 100 µM |  | > 100 µM |  | 
CCCCCCCCCCCCCC1CCC(CC)N1 (stereo unspecified) |  | 32.4 |  | 40.6 |  | 33 µM |  | 18.6 |  | 29.6 µM |  | 33.8 |  | 30.7 µM |  | 23.4 µM |  | 
CCC[CH2][Sn]1([CH2]CCC)[O]C(=O)C(C(C)C)N=Cc2ccccc2[O]1 (stereo unspecified) | 0.648 µM | 1.98 | 0.143 µM | 0.343 | 0.0722 µM | 0.219 µM | 0.235 µM | 0.819 | 0.136 µM | 0.47 µM | 0.188 | 0.456 | 0.214 µM | 0.645 µM | 0.288 µM | 0.987 µM |  | 
O=c1cccccc1NCCCNc1cccccc1=O |  | > 100 |  | > 100 |  | > 100 µM |  |  |  | > 100 µM |  | 39.2 |  | > 100 µM |  | 32.3 µM |  | 
CC[O-].CC[O-].O=C1c2ccccc2C(=O)c2c(O)ccc([O-])c21.O=C1c2ccccc2C(=O)c2c(O)ccc([O-])c21.[Ti+4] |  | > 100 |  | > 100 |  | 90.4 µM |  | > 100 |  | > 100 µM |  | > 100 |  | > 100 µM |  | > 100 µM |  | 
COc1c2c(cc3nc4ccccc4nc13)CCC(C(C)(C)O)C2 (stereo unspecified) |  | > 100 |  | > 100 |  | > 100 µM |  | > 100 |  | > 100 µM |  | > 100 |  | > 100 µM |  | > 100 µM |  | 
O=C(O)CN(c1ccccc1)S(=O)(=O)c1ccccc1[N+](=O)[O-] |  | > 100 |  | > 100 |  | > 100 µM |  | > 100 |  | > 100 µM |  | > 100 |  | > 100 µM |  | > 100 µM |  | 
N#Cc1nc(C2OC(COC(=O)c3ccccc3)C(OC(=O)c3ccccc3)C2OC(=O)c2ccccc2)oc1N (stereo unspecified) |  | > 100 |  | > 100 |  | > 100 µM |  | > 100 |  | > 100 µM |  | > 100 |  | > 100 µM |  | > 100 µM |  | 
CC(O)C(NC(=O)C(Cc1ccccc1)NC(=O)C(NC(=O)C(CCCCN)NC(=O)C(Cc1c[nH]c2ccccc12)NC(=O)C(Cc1ccc(O)cc1)NC(=O)C(Cc1ccc(Cl)cc1)NC(=O)C(N)Cc1ccccc1)C(C)O)C(N)=O (stereo unspecified) (H-F[Phe(4-Cl)]YWKTFT-NH2; configuration not given here) |  | 33.5 |  |  |  | 30.3 µM |  | 41.8 |  | 39.5 µM |  |  |  | 34.1 µM |  | > 100 µM |  | 
